One series has as its system 3T3 L1 fibroblasts. Nature of the series: Glucose transport activity assay (14C-2-deoxy-D-glucose uptake). In kind it is cell-based. A digest of the protocol:
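Differentiated 3T3 L1 adipocytes (IBMX/dexamethasone/insulin induction), serum-starved overnight, preincubated 30 min at 37 °C with compound ± insulin in pH 7.4 salt buffer, then 30 min with 5 μCi/ml 14C-2-deoxy-D-glucose. Lysate radioactivity counted; EC = concentration raising uptake above 150% of vehicle control.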

The next series has as its system ob/ob mouse. Nature of the series: Blood glucose, insulin and triglycerides in the ob/ob mouse model of Type 2 diabetes. In kind it is in vivo. The note with it: ob/ob mice, single dose 30 mg/kg, p.o. As for the experimental part: Lowering of Blood Glucose, Insulin and Triglycerides in the ob/ob Mouse Model of Type 2 Diabetes Another standard model of Type 2 diabetes is the ob/ob mouse. Male ob/ob mice (C57 BL/6J-ob) were housed 3–5 to a cage with free access to standard rodent chow pellets. After one week, they were given a single dose of Compound 15 (30 mg/kg, p.o.). Compound 15 produced a 13% decrease in blood glucose levels, a 42% decrease in plasma insulin levels, and a 15% decrease in plasma triglyceride levels. The concomitant reduction of plasma glucose and insulin levels are consistent with a reduction in insulin resistance.

The next series deals with CYP2D6 (Homo sapiens, UniProt P10635). Nature of the series: P450 interactions: CYP2D6 inhibition. In kind it is in vitro ADME. As to conditions: human cytochromes P450. The source says:
(§1) A major pathway for elimination of drugs from the body, which may limit their effectiveness, is the cytochrome P450 system of the liver.

Series [1] has as its target T1, β-kinase domain of the human insulin receptor (CKD) (Homo sapiens, UniProt P06213).
T1 construct: The complete β-kinase domain of the human insulin receptor (CKD) was expressed in, and purified from, baculovirus; made in house
Nature of the series: 32P-cytoplasmic kinase domain (CKD) autophosphorylation assay. The format is biochemical. As to conditions: phosphorylation of CKD expressed as % of the vehicle level; 10 minutes at room temperature; compound concentration not given. As for the experimental part:
^32P-cytoplasmic Kinase Domain (CKD) Autophosphorylation Assay The insulin signaling pathway is activated through stimulation of the insulin receptor. A major component of this activation is the phosphorylation of a specific portion of the receptor called the β-kinase domain. The complete β-kinase domain of the human insulin receptor (CKD) was expressed in, and purified from, baculovirus. CKD (4.0μg/ml), in a solution of 29 mM HEPES (pH 7.6), 0.05% Triton X-100, 10 mM MgCl2, 2 mM MnCl2 (50 μl final volume), was combined with 50 μM ATP, and 5 μCi ^32P-ATP (3000Ci/mmol.). A test compound, or the vehicle (dimethyl sulfoxide (DMSO)) was added to a final DMSO concentration of 1%. The mixture was incubated for 10 minutes at room temperature. The reaction was terminated by the addition of 10 μl 200 mM EDTA. A 30 μl volume was removed, mixed with 5 μl of 6× Laemmeli sodium dodecyl sulfate (SDS) treatment buffer, and heated to 94° C. for 5 minutes. A 20 μl aliquot was then run an SDS-PAGE gel. The radioactivity incorporated into the CKD band was quantified by phosphorimaging of the gel, or scintillation counting of the excised bands. The potency of a compound for increasing phosphorylation was expressed as % of the vehicle level.

The target in another series is CYP1A2 (Homo sapiens, UniProt P05177). Nature of the series: P450 interactions: CYP1A2 inhibition. In kind it is in vitro ADME. As to conditions: human cytochromes P450.
Text: as §1

T1 sequence (P06213 980-1382 limits assumed): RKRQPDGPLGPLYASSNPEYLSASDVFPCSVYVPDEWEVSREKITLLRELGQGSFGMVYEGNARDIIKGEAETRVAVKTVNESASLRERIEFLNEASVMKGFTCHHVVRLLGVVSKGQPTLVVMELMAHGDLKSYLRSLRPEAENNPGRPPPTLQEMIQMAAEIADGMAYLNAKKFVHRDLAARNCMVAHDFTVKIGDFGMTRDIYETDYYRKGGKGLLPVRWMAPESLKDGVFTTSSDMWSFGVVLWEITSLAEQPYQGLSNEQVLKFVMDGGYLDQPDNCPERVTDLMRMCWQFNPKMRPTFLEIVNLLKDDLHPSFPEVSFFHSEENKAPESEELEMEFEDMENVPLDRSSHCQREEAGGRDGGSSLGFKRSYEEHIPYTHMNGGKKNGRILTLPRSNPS
CYP1A2, sequence (P05177 whole entry): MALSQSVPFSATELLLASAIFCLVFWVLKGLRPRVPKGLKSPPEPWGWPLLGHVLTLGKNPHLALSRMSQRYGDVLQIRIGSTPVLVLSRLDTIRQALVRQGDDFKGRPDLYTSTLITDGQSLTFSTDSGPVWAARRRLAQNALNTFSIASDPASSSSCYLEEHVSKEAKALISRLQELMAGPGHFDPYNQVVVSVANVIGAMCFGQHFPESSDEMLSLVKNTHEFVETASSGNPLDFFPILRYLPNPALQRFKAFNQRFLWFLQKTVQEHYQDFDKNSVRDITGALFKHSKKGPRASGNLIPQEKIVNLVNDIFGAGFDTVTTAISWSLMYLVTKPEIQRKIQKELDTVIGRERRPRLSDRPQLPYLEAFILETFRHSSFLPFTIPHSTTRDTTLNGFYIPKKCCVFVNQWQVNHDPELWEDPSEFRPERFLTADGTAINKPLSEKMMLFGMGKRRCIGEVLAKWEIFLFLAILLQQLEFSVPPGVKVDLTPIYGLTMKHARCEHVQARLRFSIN
CYP2D6, sequence (P10635 whole entry): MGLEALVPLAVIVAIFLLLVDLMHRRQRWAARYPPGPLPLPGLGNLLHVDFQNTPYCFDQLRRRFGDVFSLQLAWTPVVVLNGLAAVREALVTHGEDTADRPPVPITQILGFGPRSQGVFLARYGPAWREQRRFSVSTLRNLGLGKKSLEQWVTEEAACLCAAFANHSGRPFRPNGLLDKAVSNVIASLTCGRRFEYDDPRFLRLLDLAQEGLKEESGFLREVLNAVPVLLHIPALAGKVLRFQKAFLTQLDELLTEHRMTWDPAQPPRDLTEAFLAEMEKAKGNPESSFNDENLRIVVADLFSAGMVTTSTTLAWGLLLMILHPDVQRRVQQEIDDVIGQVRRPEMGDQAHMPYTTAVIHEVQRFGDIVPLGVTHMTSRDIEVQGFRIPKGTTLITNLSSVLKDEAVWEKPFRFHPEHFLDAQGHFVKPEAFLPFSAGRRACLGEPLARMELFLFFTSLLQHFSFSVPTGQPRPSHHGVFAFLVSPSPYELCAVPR

As to `O=C(Nc1ccc2c(O)cc(S(=O)(=O)Nc3cccc(S(=O)(=O)O)c3)cc2c1)Nc1ccc2c(O)cc(S(=O)(=O)Nc3cccc(S(=O)(=O)O)c3)cc2c1` [Compound 15, 3-{[(4-hydroxy-7-{[N-(5-hydroxy-7-{[(3-sulfophenyl)amino]sulfonyl}(2-naphthyl))carbamoyl]amino}-2-naphthyl)sulfonyl]amino}benzenesulfonic acid], the EC (150% of vehicle control) in the series with 3T3 L1 fibroblasts (Mus musculus, EC (effective concentration) for increase in glucose transport, 14C-2-deoxy-D-glucose, 3T3 L1 cells, read-out: Concentration (μM) to reach >150% activity of vehicle control) amounted to 3.2 µM. For the same compound, the “glucose uptake of cells” value in the series with 3T3 L1 fibroblasts (in the presence or absence of insulin (FIG. 3)) was “increase in glucose uptake of cells”. In addition, in the series on ob/ob mouse, the “decrease in blood glucose levels” value was 13%, the “decrease in plasma insulin levels” value is 42% and the “decrease in plasma triglyceride levels” value was determined as 15%. The “inhibition of catalytic activity of CYP2D6” value against CYP2D6 is reported as “did not inhibit”. Moreover, the “% Activity vs. Control” value in series [1] turned out to be 125%. Also, the “inhibition of catalytic activity of CYP1A2” value on CYP1A2 is reported as “did not inhibit”.

Values taken from US7071231B2, “Naphthalene ureas as glucose uptake enhancers” (Telik, Inc., priority 1999, dated 2006).
